Reference: patent US20130129675A1, “INTERFERON THERAPIES IN COMBINATION WITH BLOCKADE OF STAT3 ACTIVATION” (BOARD OF REGENTS, THE UNIVERSITY OF TEXAS SYSTEM, priority 2009, published 2013)

Legend:
Assay type in all cases: cell-based, human
HH cells = assay: Caspase-3 and PARP cleavage in HH cells
Protocol: (§1) To determine whether IFN alpha and beta were able to selectively phosphorylate STAT3 in other cell types. Studies were conducted in a range of other biologically relevant cell types. In these experiments, cells were grown in media supplemented with 10% FBS, and then serum starved for 18 hours and exposed to various stimuli for 30 minutes. […] (FIG. 10), and induced caspase-3 and PARP cleavage in these cells (Table E5)
(§2) HH, HuT78 and MJ cells were treated with vehicle alone or WP1220 for 24 hours. Total caspase-3 and cleaved caspase-3 levels were measured in 15 ug lysates by a meso-Scale 2400 imager. Results represent means fold stimulations compared to the controls based on duplicate samples (+++++=15-25 fold; ++++=10-15 fold; +++=5-10 fold; =/−=less than 2 fold.

HuT78 Cells = assay: Caspase-3 and PARP cleavage in HuT78 cells
Protocol: as §1, §2

MJ cells = assay: Caspase-3 induction in MJ cells; conditions: 10.0 uM, 24 hours
Protocol: as §2

[1] = system: STAT3 in HaCaT keratinocytes; assay: pSTAT3 level in HaCaT keratinocytes (MSD chemiluminescent detection); conditions: pre-incubated
Protocol: Prior to experiments, the DMEM medium was changed to KGM-SFM containing rEGF and bovine pituitary extract for 12 hours, and the cells then exposed to various stimuli for 30 minutes. Cell lysates were extracted in IP lysis buffer were diluted in MSD extraction buffer and 25 uL of the cell lysate containing 10 ug protein was used in the analysis via chemiluminescent detection (MSD Technology). To test for inhibition by WP1220 (WP), cells were pre-incubated with WP1220 prior to the addition of IFN α.

[2] = system: STAT3 in HH, HuT78 and MJ CTCL lines; assay: STAT3 tyrosine 705 phosphorylation in CTCL lines
Protocol: To determine whether IFN alpha and beta were able to selectively phosphorylate STAT3 in other cell types. Studies were conducted in a range of other biologically relevant cell types. In these experiments, cells were grown in media supplemented with 10% FBS, and then serum starved for 18 hours and exposed to various stimuli for 30 minutes.

[3] = system: HuT78 and HH CTCL cell lines; assay: In vitro growth of CTCL cell lines

With `C[C@H](NC(=O)/C(C#N)=C/C=C/c1cccc(Br)n1)c1ccccc1` [WP1220, (2E,4E)-5-(6-bromopyridin-2-yl)-2-cyano-N—((S)-1-phenylethyl)penta-2,4-dienamide] the “Cleaved Caspase” value (HH cells; 5.0 uM) was “++++ (++++=60,000-40,000)”, the “Cleaved PARP” value (HH cells; 5.0 uM) was “+++++ (+++++=10,000-7,000)” and the “Cleaved Caspase” value (HH cells; 10.0 uM) was “++++ (++++=60,000-40,000)”. The “Cleaved PARP” value (HH cells; 10.0 uM) was “+++ (+++=5,000-2000)”, the “induction of caspase-3 activity (fold stimulation compared to controls)” value (HH cells; 10.0 uM, 24 hours) was “+++++ (+++++=15-25 fold)” and the “Cleaved Caspase” value (HuT78 Cells; 5.0 uM) was “++++ (++++=60,000-40,000)”. The “Cleaved PARP” value (HuT78 Cells; 5.0 uM) was “++++ (++++=7,000-5,000)”, the “Cleaved PARP” value (HuT78 Cells; 10.0 uM) was “+++ (+++=5,000-2000)” and the “induction of caspase-3 activity (fold stimulation compared to controls)” value (HuT78 Cells; 10.0 uM, 24 hours) was “++++ (++++=10-15 fold)”. For the same molecule, the “induction of caspase-3 activity (fold stimulation compared to controls)” value (MJ cells) was “+++ (+++=5-10 fold)”, the “pSTAT3 signal remaining after WP1220 pre-incubation” value (“pSTAT3 signal remaining” below) ([1]; IFN α + WP 5 uM) was “+++ (+++=2,000-4,000)” and the “pSTAT3 signal remaining” value ([1]; IFN α + WP 10 uM) was “++ (++=2,000-1,500)”. For the same molecule, the “pSTAT3 signal remaining” value ([1]; IFN α + WP 20 uM) was “+ (+=less than 1,500)”, the “relative level of activated pSTAT3” value ([2]; HH cells) was “time dependent decrease” and the “constitutive and interferon stimulated phosphorylation of STAT3” value ([2]; HH, HuT78, MJ cells (FIG. 8A, B)) was “specifically blocked”. For the same molecule, the in vitro growth [3] was “potently inhibiting the in vitro growth”.
